Data published in patent US20020058694A1, “Ureido and thioureido derivatives of 4-amino-2(5H)-furanones and 4-amino-2(5H)-thiophenones as antitumor agents” (Roche Diagnostics GmbH, priority 1997, published 2002).
In brackets after ≈: the same amount, converted by molar mass.

How the values were obtained:
Type in all cases: cell-based
Settings in all cases: 144 hours of incubation, concentration which causes the death of 50% of cell population
LoVo = experiment: MTT cytotoxicity assay, LoVo human colon tumor cell line
Experimental: (§1) The compounds of the invention were tested against three human colon tumor cell lines (HT 29, HCT 116 and LoVo). After 144 hours of incubation of the cells with the compound to be tested, the cytotoxicity is evaluated using the MTT assay (Mosman, T. “Rapid Colorimetric Assay for Cellular Growth and Survival: Application to Proliferation and Cytotoxicity Assay”; J. Immunol. Methods, (1983), 65, 66; Green, L. M., “Rapid Colorimetric Assay for Cell Viability; Application to the Quantitation of Cytotoxic and Growth Inhibitory Lymphokines”, J. Immunol. Methods, (1984), 70, 257-268). The results are expressed as IC50 ([…]), that it the concentration of the tested compound which causes the death of 50% of cell population.

HCT 116 = experiment: MTT cytotoxicity assay, HCT 116 human colon tumor cell line
Experimental: as §1

HT 29 = experiment: MTT cytotoxicity assay, HT 29 human colon tumor cell line
Experimental: as §1

| Compound | IC50 (LoVo) | IC50 (HCT 116) | IC50 (HT 29) |
| --- | --- | --- | --- |
| O=C(NC1=CC(=O)OC1)Nc1ccc(Cl)cc1 [Example 2, 4-[N-(4-chlorophenyl)aminocarbonylamino]-2(5H)-furanone] | 0.01 µg/mL (≈ 0.0396 µM) | 0.034 µg/mL (≈ 0.135 µM) | 0.032 µg/mL (≈ 0.127 µM) |
| CCc1ccc(NC(=O)NC2=CC(=O)OC2)cc1Cl [Example 3, 4-[N-(4-ethyl-3-chlorophenyl)aminocarbonylamino)-2(5H)-furanone] | 0.034 µg/mL (≈ 0.121 µM) | < 0.01 µg/mL | 0.003 µg/mL (≈ 0.0107 µM) |
